Data as given in US9375436B2, “Androgen treatment in females” (priority 2004, dated 2016).
Where “and” joins values, the source holds several entries; their conditions need not be identical. Identical values can stand only once.

Columns and labels:
Type in all cases: in vivo, human
[1] = test system: women with diminished ovarian reserve; test: Miscarriage rates in DHEA pregnancies at two centers versus 2004 national US IVF data (Example 8)
Procedure: Based on reported clinical experiences, the indications for DHEA supplementation have changed over the years, with women above age 40 since 2007 receiving routine supplementation, and younger women receiving supplementation only selectively.
DHEA supplementation involves the use of pharmaceutical grade micronized DHEA at a dosage of about 25 mg, three times daily. Patients are on DHEA supplementation for at least about two months prior to oocyte retrieval. This period of minimal pretreatment is based on the recognition that at two months pregnancy curves between DHEA pretreated and control patients statistically diverge. DHEA is maintained until pregnancy is established and is discontinued with positive pregnancy test.
Toronto West Fertility Associates, in Toronto, Canada, started utilizing DHEA independent of the use of DHEA at the Center for Human Reproduction (CHR) in New York, N.Y. In December of 2007, Toronto's medical director forwarded a detailed electronic record of the center's all-inclusive DHEA experience for analysis to CHR. This study, therefore, reports on the miscarriage rate of pregnancies, independently established under DHEA supplementation at both fertility centers, and compares these rates, age-stratified, to miscarriage rates reported in a national IVF data base in the U.S. for the year 2004. The definitions of clinical pregnancy, and of miscarriage, used herein follow the reporting requirements of this national data base, defining a clinical pregnancy as a pregnancy, confirmed by ultrasound examination.
Miscarriage rates of DHEA supplemented patients were compared with national IVF outcome statistics, reported annually under Federal mandate by the Centers for Disease Control. The data utilized for this study reflect 2004 United States national statistics. Pregnancy and miscarriage rates at the two centers were pooled after confirmation of homogeneity of variance. Common odds ratios of the pooled miscarriage rates among age stratified pregnant patients were compared between the pooled rates and the 2004 US national rates utilizing the Mantel-Haenszel common odds ratio. Statistical analyses were performed using SPSS Windows, standard version 15.0.
DHEA supplementation: After approval by the center's institutional review board, the Center for Human Reproduction (CHR) in New York City has been utilizing DHEA supplementation in women with diminished ovarian reserve since 2004. Based on reported clinical experiences, the indications for such supplementation have changed over the years: In initial stages, only older women, above age 42, were supplemented and only if they had failed at least one IVF cycle and less than 4 oocytes had been retrieved in confirmation of ovarian resistance to stimulation. By mid-2005, indications were expanded to all women above age 40 with evidence of ovarian resistance and a history of one failed prior IVF cycle. […] By mid-2006 FSH baseline criteria were changed from absolute FSH elevations to elevations in age-specific FSH levels.
DHEA supplementation in all patients involves oral, pharmaceutical grade micronized medication at a dosage of 25 mg, three times daily (TID). Only morbidly obese women receive an increased daily dosage of 100 mg and no such women were involved in this study. […] Limited patient volume and funding sources have prevented dose response studies and 25 mg DHEA TID daily has, therefore, remained the only standard treatment dosage. Patients receive at least two months of DHEA supplementation prior to oocyte retrieval, unless they conceive spontaneously during that time period. This minimum pretreatment period is based on the recognition that at two months pregnancy curves between DHEA pretreated and control patients statistically diverge. DHEA is maintained until pregnancy, and is discontinued with second positive pregnancy test. […]

[2] = test system: person with prematurely aging ovaries; test: Case report: DHEA substitution in probable 17,20-desmolase deficiency (Patient B, Example 5); conditions: for Estradiol periovulatory: spontaneous ovulation
Procedure: (§1) In a further study, a case of probable 17, 20-desmolase deficiency, resulting in abnormally low estradiol, DHEA, androstenedione and testosterone levels, is presented in a person with a clinical history of, initially, unexplained infertility and, later, prematurely aging ovaries.
(§2) In July of 2003, the patient was started on 25 mg daily of micronized DHEA. After five weeks of treatment, DHEA, DHEA-S and androstenedione levels had normalized into mid-ranges. (Even though androstenedione is partially produced through the activity of 17,20-desmolase from 17-hydroxyprogesterone, part is also derived from DHEA through the activity of 3-beta hydroxysteroid dehydrogenase [Speroff et al., 1999a]. The normalization of androstenedione, after DHEA administration, therefore, also speaks for an underlying 17,20-desmolase defect, and not a 3-beta hydroxysteroid dehydrogenase deficiency.) In the third and fourth month, following the start of DHEA supplementation, the patient ovulated spontaneously with estradiol levels of 268 and 223 pg/ml (Table 2), respectively, measured on the day of LH surge.
(§3) On Jan. 28, 2004, and after DHEA therapy of approximately six months, a fourth IVF cycle was initiated. Their baseline FSH level in that cycle was 9.6 mIU/ml, estradiol 56 pg/ml. Stimulation took place with 300 IU of recombinant FSH (without hMG) and with an agonist flare protocol. […] A triplet pregnancy was established with heart beats. Two, out of the three fetuses lost heart beat spontaneously, and the patient delivered by cesarean section, at term, a healthy singleton infant.

[3] = as above; conditions: human, in vivo, oral, normal (130-980), read-out: DHEA level
Procedure: as §1, §2, §3

[4] = January 2004, 4th IVF cycle start, DHEA approximately six months
[5] = fourth IVF cycle after DHEA therapy of approximately six months

For `C[C@]12CC[C@H](O)CC1=CC[C@@H]1[C@@H]2CC[C@]2(C)C(=O)CC[C@@H]12` [DHEA, Dehydroepiandrosterone], the “clinical miscarriage rate, Toronto” value ([1]; 33 DHEA pregnancies, five miscarriages) was 15.2%, the “clinical miscarriage rate, New York” value ([1]; 40 DHEA pregnancies, six miscarriages) was 15.0% and the “Misc. Rate (%)” value ([1]; NY, age 35-37) was 0.0%. For the same molecule, the Miscarriages ([1]; NY, age 35-37, 5 pregnancies) was 0, the “Misc. Rate (%)” value ([1]; NY, age 38-40) was 0.0% and the Miscarriages ([1]; NY, age 38-40, 6 pregnancies) was 0. For the same molecule, the “Misc. Rate (%)” value ([1]; NY, age 41-42) was 20.0%, the Miscarriages ([1]; NY, age 41-42, 10 pregnancies) was 2 and the “Misc. Rate (%)” value ([1]; NY, age <35) was 10.0%. The Miscarriages ([1]; NY, age <35, 10 pregnancies) was 1, the “Misc. Rate (%)” value ([1]; NY, age >42) was 33.3% and the Miscarriages ([1]; NY, age >42, 9 pregnancies) was 3. The “Misc. Rate (%)” value ([1]; TO, age 35-37) was 10.0%, the Miscarriages ([1]; TO, age 35-37, 10 pregnancies) was 1 and the “Misc. Rate (%)” value ([1]; TO, age 38-40) was 23.1%. For the same molecule, the Miscarriages ([1]; TO, age 38-40, 13 pregnancies) was 3, the Miscarriages ([1]; TO, age 41-42, 0 pregnancies) was 0 and the “Misc. Rate (%)” value ([1]; TO, age <35) was 14.3%. The Miscarriages ([1]; TO, age <35, 7 pregnancies) was 1, the “Misc. Rate (%)” value ([1]; TO, age >42) was 0.0% and the Miscarriages ([1]; TO, age >42, 3 pregnancies) was 0. The “Misc. Rate (%)” value ([1]; TOTAL both centers, age 35-37) was 6.7%, the “Misc. Rate (%)” value ([1]; TOTAL both centers, age 38-40) was 15.8% and the “Misc. Rate (%)” value ([1]; TOTAL both centers, age 41-42) was 20.0%. For the same molecule, the “Misc. Rate (%)” value ([1]; TOTAL both centers, age <35) was 11.8%, the “Misc. Rate (%)” value ([1]; TOTAL both centers, age >42) was 25.0% and the “reduction in miscarriage risk” value ([1]; first statistical model (age-stratified odds ratio)) was “approximately 50%”. For the same molecule, the “decline in miscarriages, depending on statistical method” value ([1]; versus national US IVF pregnancies) was 50-80%, the Testosterone free ([2]; December 2003, on DHEA, normal (1-21)) was 2 pg/mL and the “Testosterone free and weekly bound” value ([2]; December 2003, on DHEA, normal (3-29)) was 4 ng/dL. The Estradiol baseline [2, 4] was 56 pg/mL, the FSH baseline [2, 4] was 9.6 mIU/ml and the FSH ([2]; January 2004, on DHEA, first value) was 18 mIU/ml. It also gave an Androstenedione level ([2]; July 2003 after DHEA treatment start, normal (65-270)) of 121 ng/dL, an Estradiol ([2]; November 2003, on DHEA) of 38 pg/mL and an FSH ([2]; November 2003, on DHEA) of 17 mIU/ml. For the same molecule, the Estradiol ([2]; October 2003, on DHEA) was 44 pg/mL, the FSH ([2]; October 2003, on DHEA) was 14.7 mIUI/ml and the Estradiol periovulatory ([2]; October 2003, on DHEA) was 223 pg/mL and 224 pg/mL. It also gave an Estradiol periovulatory ([2]; September 2003, on DHEA) of 268 pg/mL, an oocytes retrieved [2, 5] of 8 and a peak estradiol level [2, 5] of 1764 pg/mL. For the same molecule, the concentration at 5 months ([3]; 25 mg daily, December 2003, on DHEA) was 278 ng/mL and the concentration at 5 weeks ([3]; July 2003 after DHEA treatment start, 25 mg daily micronized) was 2.96 ng/mL.
